The subject of one series is F344/N rats. The following applies: week 92.
The next series has as its system B6C3F1 mice. As to conditions: week 91.

SMILES strings stand for the structures.

On to `c1ccccc1` [benzene], for which the “Survival in all groups” value in the series with F344/N rats and in the series with B6C3F1 mice was “greater than 60%” throughout.

For the origin of these results see article PMC1568117 (Environmental Health Perspectives, 1989).
